Assay results: publication PMC3667671 (Clinical pharmacology and therapeutics, 2012)
“And” between values parts separate entries of the source, which are not always exact repeats. Identical values can stand only once. Like-named read-outs stand apart in the source and are kept apart here.

Assays:
[1] = format: in vivo, human; conditions: for CLR (renal clearance) / AUC0–6 h / AUC0–24 h / Cmax / AUC(0-t): mean ± SD; for AUC0–6 h / AUC0–24 h / Cmax / AUC(0-t): serum
[2] = test system: serum cholesterol; conditions: human, in vivo; cited from earlier work
[3] = Estimated luminal concentration of efavirenz after oral administration; set-up: species or system human; conditions: after oral administration of 400 mg, dose/250 mL
[4] = molecular target: ABCC2 (Homo sapiens, UniProt Q92887); assay: Uptake of estradiol-17β-glucuronide into ABCC2-containing inside-out vesicles; format: biochemical
[5] = molecular target: T1, OATP1B1 (Homo sapiens, UniProt Q9Y6L6); format: cell-based; conditions: OATP1B1-transfected HEK293 cells, efavirenz 1–1,000 μmol/l
T1 sequence (Q9Y6L6 1-691): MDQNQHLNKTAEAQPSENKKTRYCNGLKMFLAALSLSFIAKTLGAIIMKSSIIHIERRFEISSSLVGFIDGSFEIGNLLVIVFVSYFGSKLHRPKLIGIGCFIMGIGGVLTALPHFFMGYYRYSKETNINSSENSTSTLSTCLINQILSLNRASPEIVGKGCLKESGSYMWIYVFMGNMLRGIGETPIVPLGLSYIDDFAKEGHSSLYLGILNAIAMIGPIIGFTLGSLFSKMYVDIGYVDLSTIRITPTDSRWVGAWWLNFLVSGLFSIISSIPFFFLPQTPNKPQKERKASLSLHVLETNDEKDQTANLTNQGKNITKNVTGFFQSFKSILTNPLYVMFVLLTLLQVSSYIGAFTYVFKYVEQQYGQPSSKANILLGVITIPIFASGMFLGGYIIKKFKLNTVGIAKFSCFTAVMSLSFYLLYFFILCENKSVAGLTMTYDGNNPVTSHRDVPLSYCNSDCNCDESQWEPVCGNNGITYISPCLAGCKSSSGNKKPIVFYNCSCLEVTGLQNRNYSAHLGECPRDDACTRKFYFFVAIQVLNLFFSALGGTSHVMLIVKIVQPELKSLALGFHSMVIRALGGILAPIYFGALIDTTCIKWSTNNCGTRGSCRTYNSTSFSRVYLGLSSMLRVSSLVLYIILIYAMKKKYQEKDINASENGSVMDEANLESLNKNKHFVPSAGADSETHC

[6] = molecular target: ABCB1 (Homo sapiens, UniProt P08183); assay: Calcein AM accumulation assay in ABCB1-transfected MDCKII cells; format: cell-based
[7] = rapidly absorbed from the upper intestine; cited from earlier work
[8] = format: in vivo, human
[9] = test system: serum sterols; assay: Serum sterol concentrations; format: in vivo, human
[10] = ezetimibe + efavirenz multiple dose vs ezetimibe alone
[11] = ezetimibe + efavirenz single dose vs ezetimibe alone
[12] = steady state 10 mg ezetimibe + 400 mg efavirenz multiple dose
[13] = steady state 10 mg ezetimibe + 400 mg efavirenz single dose
[14] = steady state, 10 mg ezetimibe alone
[15] = 400 mg efavirenz single dose, second value of the pair (taken as with ezetimibe)
[16] = chronic administration of 10 mg ezetimibe, 12 healthy subjects

Sequence of ABCB1 (P08183 whole entry): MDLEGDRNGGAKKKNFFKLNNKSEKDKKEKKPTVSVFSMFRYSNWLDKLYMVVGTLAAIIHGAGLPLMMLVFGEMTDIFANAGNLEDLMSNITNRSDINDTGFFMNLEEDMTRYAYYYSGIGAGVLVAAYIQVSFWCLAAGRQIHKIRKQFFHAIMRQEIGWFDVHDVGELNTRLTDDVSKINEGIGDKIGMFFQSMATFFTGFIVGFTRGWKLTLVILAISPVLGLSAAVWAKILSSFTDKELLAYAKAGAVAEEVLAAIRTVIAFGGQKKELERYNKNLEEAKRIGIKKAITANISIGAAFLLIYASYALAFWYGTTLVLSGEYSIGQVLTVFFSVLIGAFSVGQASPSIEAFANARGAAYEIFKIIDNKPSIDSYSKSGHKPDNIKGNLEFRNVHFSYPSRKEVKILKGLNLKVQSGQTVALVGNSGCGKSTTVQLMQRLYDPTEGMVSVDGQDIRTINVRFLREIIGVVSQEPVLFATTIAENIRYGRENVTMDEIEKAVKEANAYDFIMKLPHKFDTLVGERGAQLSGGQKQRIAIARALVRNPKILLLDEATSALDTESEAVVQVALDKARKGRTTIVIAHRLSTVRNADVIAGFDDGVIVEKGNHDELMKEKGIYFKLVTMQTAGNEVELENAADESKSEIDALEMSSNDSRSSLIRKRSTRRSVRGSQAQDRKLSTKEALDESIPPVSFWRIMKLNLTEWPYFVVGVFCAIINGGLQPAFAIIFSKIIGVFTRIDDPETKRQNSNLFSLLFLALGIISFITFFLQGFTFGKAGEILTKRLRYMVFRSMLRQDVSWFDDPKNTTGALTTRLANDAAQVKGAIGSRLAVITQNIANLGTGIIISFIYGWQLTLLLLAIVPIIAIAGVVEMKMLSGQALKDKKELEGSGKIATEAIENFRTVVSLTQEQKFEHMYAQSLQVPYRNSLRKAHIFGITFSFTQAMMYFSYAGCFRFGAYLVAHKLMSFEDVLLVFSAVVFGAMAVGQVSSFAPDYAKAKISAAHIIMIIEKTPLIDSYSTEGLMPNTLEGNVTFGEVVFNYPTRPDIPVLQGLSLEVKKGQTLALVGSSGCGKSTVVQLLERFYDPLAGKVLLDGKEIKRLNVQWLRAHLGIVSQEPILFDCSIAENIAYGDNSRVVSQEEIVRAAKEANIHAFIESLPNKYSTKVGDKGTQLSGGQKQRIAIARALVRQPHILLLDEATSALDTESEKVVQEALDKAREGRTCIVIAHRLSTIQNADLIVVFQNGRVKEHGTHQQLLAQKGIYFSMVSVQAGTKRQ
Sequence of ABCC2 (Q92887 whole entry): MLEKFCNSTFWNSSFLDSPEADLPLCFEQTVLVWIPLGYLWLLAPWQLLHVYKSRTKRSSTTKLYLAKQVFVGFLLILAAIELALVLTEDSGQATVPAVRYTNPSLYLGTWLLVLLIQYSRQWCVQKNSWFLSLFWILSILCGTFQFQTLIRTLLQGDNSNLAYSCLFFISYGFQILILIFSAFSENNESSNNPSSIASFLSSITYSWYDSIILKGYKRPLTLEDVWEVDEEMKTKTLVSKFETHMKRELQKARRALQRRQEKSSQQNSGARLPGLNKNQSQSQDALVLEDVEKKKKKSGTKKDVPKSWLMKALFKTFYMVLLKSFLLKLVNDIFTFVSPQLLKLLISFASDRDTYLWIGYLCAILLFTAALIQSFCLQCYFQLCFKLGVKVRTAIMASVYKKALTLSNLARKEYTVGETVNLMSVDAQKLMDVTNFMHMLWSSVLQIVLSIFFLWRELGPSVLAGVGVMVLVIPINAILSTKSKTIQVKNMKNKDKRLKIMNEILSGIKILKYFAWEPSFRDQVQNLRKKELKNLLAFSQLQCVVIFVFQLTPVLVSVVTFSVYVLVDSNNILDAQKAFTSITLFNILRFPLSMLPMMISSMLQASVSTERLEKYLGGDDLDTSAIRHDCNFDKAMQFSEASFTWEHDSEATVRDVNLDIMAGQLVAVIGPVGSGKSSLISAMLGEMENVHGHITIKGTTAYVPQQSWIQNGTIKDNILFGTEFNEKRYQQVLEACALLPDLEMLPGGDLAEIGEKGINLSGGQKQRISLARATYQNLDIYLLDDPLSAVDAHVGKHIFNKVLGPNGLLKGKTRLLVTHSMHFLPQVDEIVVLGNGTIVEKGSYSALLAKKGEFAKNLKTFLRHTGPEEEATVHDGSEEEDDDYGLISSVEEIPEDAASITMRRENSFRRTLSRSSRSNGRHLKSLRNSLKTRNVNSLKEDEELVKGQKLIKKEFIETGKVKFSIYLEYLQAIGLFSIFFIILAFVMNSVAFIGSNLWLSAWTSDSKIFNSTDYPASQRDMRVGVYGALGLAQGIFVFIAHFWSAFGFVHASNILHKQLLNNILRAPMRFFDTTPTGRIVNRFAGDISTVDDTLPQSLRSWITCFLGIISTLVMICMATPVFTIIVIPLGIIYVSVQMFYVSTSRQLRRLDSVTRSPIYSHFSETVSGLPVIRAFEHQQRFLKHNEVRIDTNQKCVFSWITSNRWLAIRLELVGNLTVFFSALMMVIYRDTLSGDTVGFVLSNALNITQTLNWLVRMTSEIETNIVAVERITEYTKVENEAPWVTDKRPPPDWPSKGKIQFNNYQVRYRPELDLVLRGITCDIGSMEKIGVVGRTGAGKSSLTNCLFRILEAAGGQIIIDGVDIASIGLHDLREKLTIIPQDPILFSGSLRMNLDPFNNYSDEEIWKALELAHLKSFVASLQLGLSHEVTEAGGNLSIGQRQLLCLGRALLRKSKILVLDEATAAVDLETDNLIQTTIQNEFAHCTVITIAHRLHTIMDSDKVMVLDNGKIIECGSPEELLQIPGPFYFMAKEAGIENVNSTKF

O=C(O)[C@H]1O[C@@H](Oc2ccc([C@@H]3[C@@H](CC[C@H](O)c4ccc(F)cc4)C(=O)N3c3ccc(F)cc3)cc2)[C@H](O)[C@@H](O)[C@@H]1O [Ezetimibe-glucuronide, ezetimibe-glucuronide]
CLR (renal clearance) ([1]; 10 mg ezetimibe + 400 mg efavirenz multiple dose): 21.7 ± 5.91 mL/min
CLR (renal clearance) ([1]; 10 mg ezetimibe + 400 mg efavirenz single dose): 23.3 ± 7.61 mL/min
CLR (renal clearance) ([1]; 10 mg ezetimibe alone, steady state): 24.7 ± 8.77 mL/min
decrease of exposure ([1]; acute and chronic comedication with efavirenz): 12–30%
AUC0–6 h Ratio (90% CI) [1, 10]: 0.691 (0.592, 0.806)
AUC0–24 h Ratio (90% CI) [1, 10]: 0.700 (0.608, 0.806)
Cmax Ratio (90% CI) [1, 10]: 0.606 (0.469, 0.783)
AUC0–6 h Ratio (90% CI) [1, 11]: 0.872 (0.774, 0.982)
AUC0–24 h Ratio (90% CI) [1, 11]: 0.885 (0.809, 0.968)
Cmax Ratio (90% CI) [1, 11]: 0.776 (0.625, 0.963)
reduction of urinary excretion ([1]; multiple doses of efavirenz, unchanged renal clearance, P = 0.003): 35%
diminished serum AUC ([1]; pretreatment with multiple doses of efavirenz, P = 0.005): ~30%
diminished serum Cmax ([1]; pretreatment with multiple doses of efavirenz, P = 0.012): about 43%
AUC0–6 h [1, 12]: 141 ± 58 ng·h/mL
AUC0–24 h [1, 12]: 325 ± 152 ng·h/mL
Cmax [1, 12]: 45.3 ± 14.6 ng/mL
AUC0–6 h [1, 13]: 182 ± 87 ng·h/mL
AUC0–24 h [1, 13]: 411 ± 195 ng·h/mL
Cmax [1, 13]: 60.9 ± 29.5 ng/mL
AUC0–24 h ([1]; steady state, 10 mg ezetimibe alone, 12 healthy subjects): 466 ± 223 ng·h/mL
AUC0–6 h [1, 14]: 205 ± 90 ng·h/mL
Cmax [1, 14]: 78.9 ± 43.1 ng/mL

O=C1Nc2ccc(Cl)cc2[C@@](C#CC2CC2)(C(F)(F)F)O1 [Efavirenz, efavirenz]
HIV-infected patients with increased serum cholesterol levels [2]: ~50%
estimated luminal concentration [3]: ~ 5 mmol/l and 5 mmol/l
IC50 [4]: 60.3 µM
influence on OATP1B1-mediated uptake of bromosulfophthalein [5]: no influence
concentration inhibiting ABCB1 activity to the same extent as PSC833 (10 μmol/l) [6]: 316 µM
Tmax [7]: 2 to 3 h
cumulative renal excretion ([8]; 400 mg efavirenz single dose, first value of the pair (taken as alone)): 83.4 ± 26.9 µg
cumulative renal excretion [8, 15]: 88.4 ± 18.8 µg
renal clearance [8, 15]: 0.06 ± 0.03 mL/min
AUC(0-inf) ([8]; human, serum, oral, 400 mg): 27000 ± 12200 ng·h/mL
CL renal ([8]; human, urine and plasma, oral, 400 mg): 0.06 ± 0.03 mL/min

O=C1[C@H](CC[C@H](O)c2ccc(F)cc2)[C@@H](c2ccc(O)cc2)N1c1ccc(F)cc1 [Ezetimibe, ezetimibe]
lathosterol/cholesterol ratio (marker for endogenous cholesterol synthesis) ([9]; after treatment with ezetimibe): significantly increased
reduction of serum concentration of campesterol [9, 16]: ~ 40%
reduction of serum concentration of sitosterol [9, 16]: ~ 40%
reduction of total serum cholesterol [9, 16]: 10–15%
AUC0–6 h Ratio (90% CI) [1, 10]: 1.052 (0.880, 1.256)
AUC0–24 h Ratio (90% CI) [1, 10]: 0.975 (0.850, 1.118)
Cmax Ratio (90% CI) [1, 10]: 0.951 (0.730, 1.240)
AUC0–6 h Ratio (90% CI) [1, 11]: 1.346 (1.201, 1.508)
AUC0–24 h Ratio (90% CI) [1, 11]: 1.146 (1.034, 1.270)
Cmax Ratio (90% CI) [1, 11]: 1.194 (1.031, 1.382)
AUC(0-t) ([1]; human, oral, 10 mg, AUC0–6 h, steady state, 10 mg ezetimibe alone): 13.6 ± 5.5 ng·h/mL
AUC(0-t) ([1]; human, oral, 10 mg, AUC0–24 h, steady state, 10 mg ezetimibe alone, 12 healthy subjects): 51.9 ± 21.7 ng·h/mL
Cmax ([1]; human, oral, 10 mg, Cmax, steady state, 10 mg ezetimibe alone): 4.82 ± 2.74 ng/mL
higher AUC0–6 h ([1]; with single-dose efavirenz vs ezetimibe alone, P = 0.005): 1.4 fold
higher maximum plasma concentration (Cmax) ([1]; with single-dose efavirenz vs ezetimibe alone, P = 0.049): 1.2 fold
